The term melting point denotes the temperature of the solid-liquid transition. What is called IC50 is the midpoint of a concentration-inhibition curve. A low value points to greater potency in that assay.

Test system in the first series: not given
Experiment: not given
Conditions: not given
Take `O=c1c(NCc2cccc(O)c2)c(Nc2ccc(O)c(-c3ccccn3)c2)c1=O` [Compound A1, 3-(3-hydroxybenzylamino)-4-(4-hydroxy-3-pyridin-2-ylphenylamino)cyclobut-3-ene-1,2-dione]: the melting point was in the range of 271 to 272 °C.

The next series concerns the target T1, CHK1 kinase (Homo sapiens, UniProt O14757).
T1 construct: glutathione S-transferase (GST); made in house; host or cells: Sf21 (S. frugiperda) insect cells, baculovirus expression vector
T1 sequence (O14757 1-476): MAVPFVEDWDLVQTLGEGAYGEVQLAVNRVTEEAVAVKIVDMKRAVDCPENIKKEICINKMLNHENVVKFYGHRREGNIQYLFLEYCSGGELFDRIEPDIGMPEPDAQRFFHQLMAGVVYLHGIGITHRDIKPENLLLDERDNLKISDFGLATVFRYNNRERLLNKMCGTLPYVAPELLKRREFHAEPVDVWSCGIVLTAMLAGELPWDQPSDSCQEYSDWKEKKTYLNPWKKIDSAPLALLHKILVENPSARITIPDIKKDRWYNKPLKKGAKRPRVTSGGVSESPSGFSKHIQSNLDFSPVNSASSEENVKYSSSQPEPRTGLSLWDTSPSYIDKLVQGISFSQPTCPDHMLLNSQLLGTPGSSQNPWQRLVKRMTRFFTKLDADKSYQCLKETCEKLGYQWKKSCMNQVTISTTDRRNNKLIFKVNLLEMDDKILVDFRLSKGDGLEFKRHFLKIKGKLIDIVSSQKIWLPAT
Briefly: Measurement of the CHK1 kinase activity (flashplate / filter binding method). The class given is biochemical. The note with it: class symbols defined in table footnotes. How it is done:
CHK1 kinase is expressed for the purposes of protein production in insect cells (Sf21; S. frugiperda) and subsequent purification by affinity chromatography as fusion protein with glutathione S-transferase in a baculovirus expression vector. The cultivation, infection and digestion of the cells as well as the purification of the fusion protein by column chromatography are carried out in accordance with manufacturer-oriented generic working instructions.
The kinase activity is measured using various available measurement systems. In the scintillation proximity method (Sorg et al., J. of. Biomolecular Screening, 2002, 7, 11-19), the flashplate method or the filter binding test, the radioactive phosphorylation of a protein or peptide as substrate is measured using radioactively labelled ATP (γ^32P-ATP, (γ^33P-ATP). In the case of the presence of an inhibitory compound, a reduced radioactive signal, or none at all, can be detected. Furthermore, homogeneous time-resolved fluorescence resonance energy transfer (HTR-FRET) and fluorescence polarisation (FP) technologies are useful as assay methods (Sills et al., J. of Biomolecular Screening, 2002, 191-214).
The test plates used are 384-well streptavidin-coated Flashplates Plus® from Perkin Elmer (Cat. No. SMP410A001 PK). The assay plate is equilibrated with 75 μl of assay buffer per well 30 min before commencement of the experiment. The buffer is sucked out before commencement of the experiment, and the components of the kinase reaction described below are pipetted onto the plate.
CHK1 kinase, a biotinylated substrate peptide (for example CHKtide: […]), is incubated with radioactively labelled ATP in the presence and absence of test substances at […] and a total volume of 50 μl. The reaction is terminated using 25 μl of a 0.2 M EDTA solution. After incubation for 30 min at room temperature, the supernatants are filtered off with suction, and the wells are washed three times with 100 μl of 0.9% NaCl solution each time. The measurement of the bound radioactivity is carried out by means of a scintillation measuring instrument (Topcount NXT, Perkin-Elmer).
The full value used is the inhibitor-free kinase reaction. This should be approximately in the range 3000-4000 cpm. The pharmacological zero value used is staurosporin in a final concentration of 0.1 μM. The inhibitory values (IC50) are determined using the program RS1_MTS ( ).
Kinase reaction conditions per well:
0.15 μg of CHKtide ([…])
50 μl total volume (1-fold assay buffer reaction conditions)
5-20 mU of CHK1 kinase (diluted in 20 mM MOPS pH7.5, 1 mM EDTA, 0.1% β-mercaptoethanol, 0.01% Brij-35, 5% glycerol, 1 mg/ml of BSA) are incubated for 30 min at room temperature in the presence of 30-200 μM CHKtide in 25.5 μl in 1-fold reaction buffer (8 mM MOPS pH7, 0.2 mM EDTA, 10 mM magnesium acetate, 0.02 mM γ^33P-ATP [500-1000 cpm/pmol]). The reaction is stopped using 5 μl of 0.5 M ortho-phosphoric acid and filtered through P81 filter plates. After the filter plates have been washed a number of times, the bound radioactivity is determined in a scintillation counter.
Molecule `O=c1c(NCc2ccc(O)c(O)c2)c(Nc2ccc(O)c(-c3ccccn3)c2)c1=O` [Compound A61, 3-(3,4-Dihydroxybenzylamino)-4-(4-hydroxy-3-pyridin-2-ylphenylamino)cyclobut-3-ene-1,2-dione] registered an IC50 below 100 nM.
Consider `C[C@H](Nc1c(Nc2ccc(O)c(-c3ccccn3)c2)c(=O)c1=O)c1cccc(O)c1` [Compound A10, 3-(4-Hydroxy-3-pyridin-2-ylphenylamino)-4-[(S)-1-(3-hydroxyphenyl)ethylamino]cyclobut-3-ene-1,2-dione], for which the IC50 was above 1000 nM.
As to `O=c1c(NCCc2cccc(O)c2)c(Nc2ccc(O)c(-c3ccccn3)c2)c1=O` [Compound A60, 3-[2-(3-Hydroxyphenyl)ethylamino]-4-(4-hydroxy-3-pyridin-2-ylphenylamino)cyclobut-3-ene-1,2-dione], the IC50 is below 1000 nM.
On the same count and under the same terms, to `COc1ccc(Nc2c(NCc3cccc(O)c3)c(=O)c2=O)cc1-n1ccnc1` [Compound A72, 3-(3-Hydroxybenzylamino)-4-(3-imidazol-1-yl-4-methoxyphenylamino)cyclobut-3-ene-1,2-dione] belongs above 1000 nM; to `NC(=O)c1cccc(CNc2c(Nc3ccc(O)c(-c4ccccn4)c3)c(=O)c2=O)c1` [Compound A66, 3-(3-Aminocarbonylbenzylamino)-4-(4-hydroxy-3-pyridin-2-ylphenylamino)cyclobut-3-ene-1,2-dione], below 1000 nM; to `O=c1c(NCc2cccc(O)c2)c(Nc2ccc(O)c(-c3ccccn3)c2)c1=O` [Compound A1, 3-(3-hydroxybenzylamino)-4-(4-hydroxy-3-pyridin-2-ylphenylamino)cyclobut-3-ene-1,2-dione], below 100 nM.
Still for that read-out and setting: to `CNS(=O)(=O)c1cccc(CNc2c(Nc3ccc(O)c(-c4ccccn4)c3)c(=O)c2=O)c1` [Compound A67, 3-(3-Methylaminosulfonylbenzylamino)-4-(4-hydroxy-3-pyridin-2-ylphenylamino)cyclobut-3-ene-1,2-dione] belongs below 1000 nM.
As to `O=c1c(NCc2cc(O)cc(O)c2)c(Nc2ccc(O)c(-c3ccccn3)c2)c1=O` [Compound A63, 3-(3,5-Dihydroxybenzylamino)-4-(4-hydroxy-3-pyridin-2-ylphenylamino)cyclobut-3-ene-1,2-dione], the IC50 is below 100 nM.
For the molecule `O=c1c(NCc2ccc(F)c(O)c2)c(Nc2ccc(O)c(-c3ccccn3)c2)c1=O` [Compound A65, 3-(4-Fluoro-3-hydroxybenzylamino)-4-(4-hydroxy-3-pyridin-2-ylphenylamino)cyclobut-3-ene-1,2-dione], the 50% inhibitory concentration (IC50) was below 1000 nM.
The molecule `COc1cccc([C@@H](C)Nc2c(Nc3ccc(O)c(-c4ccccn4)c3)c(=O)c2=O)c1` [Compound A4, 3-(4-Hydroxy-3-pyridin-2-ylphenylamino)-4-[(R)-1-(3-methoxyphenyl)ethylamino]cyclobut-3-ene-1,2-dione] yielded a half-inhibitory concentration (IC50) above 1000 nM.
The molecule `CC(=O)Nc1cccc(CNc2c(Nc3ccc(O)c(-c4ccccn4)c3)c(=O)c2=O)c1` [Compound A64, 3-(3-Acetamidobenzylamino)-4-(4-hydroxy-3-pyridin-2-ylphenylamino)cyclobut-3-ene-1,2-dione] registered an IC50 below 1000 nM.
Take `O=c1c(NCc2cccc(O)c2)c(Nc2ccc(O)c(-n3cccc3)c2)c1=O` [Compound A73, 3-(3-Hydroxybenzylamino)-4-(4-hydroxy-3-pyrrol-1-ylphenylamino)cyclobut-3-ene-1,2-dione]: the half-inhibitory concentration (IC50) is above 1000 nM.
As for `COc1cc(CNc2c(Nc3ccc(O)c(-c4ccccn4)c3)c(=O)c2=O)ccc1F` [Compound A62, 3-(4-Fluoro-3-methoxybenzylamino)-4-(4-hydroxy-3-pyridin-2-ylphenylamino)cyclobut-3-ene-1,2-dione], the IC50 is above 1000 nM.
`NS(=O)(=O)c1cccc(CNc2c(Nc3ccc(O)c(-c4ccccn4)c3)c(=O)c2=O)c1` [Compound A12, 3-(3-Aminosulfonylbenzylamino)-4-(4-hydroxy-3-pyridin-2-ylphenylamino)cyclobut-3-ene-1,2-dione] gave a half-maximal inhibitory concentration (IC50) below 1000 nM.
Still for that read-out and setting: to `COc1cccc([C@H](C)Nc2c(Nc3ccc(O)c(-c4ccccn4)c3)c(=O)c2=O)c1` [Compound A59, 3-(4-Hydroxy-3-pyridin-2-ylphenylamino)-4-[(S)-1-(3-methoxyphenyl)ethylamino]cyclobut-3-ene-1,2-dione] belongs above 1000 nM; to `C[C@@H](Nc1c(Nc2cccc(-c3ccccn3)c2)c(=O)c1=O)c1cccc(O)c1` [Compound A6, 3-(3-Pyridin-2-ylphenylamino)-4-[(R)-1-(3-hydroxyphenyl)ethylamino]cyclobut-3-ene-1,2-dione], above 1000 nM; to `O=c1c(NCc2cccc(O)c2)c(Nc2ccc(O)c(-n3cccn3)c2)c1=O` [Compound A75, 3-(3-Hydroxybenzylamino)-4-(4-hydroxy-3-pyrazol-1-ylphenylamino)cyclobut-3-ene-1,2-dione], below 1000 nM.
The molecule `CN(Cc1cccc(O)c1)c1c(Nc2ccc(O)c(-c3ccccn3)c2)c(=O)c1=O` [Compound A68, 3-[(3-Hydroxybenzyl)methylamino]-4-(4-hydroxy-3-pyridin-2-ylphenylamino)cyclobut-3-ene-1,2-dione] gave an IC50 below 1000 nM.
`C[C@@H](Nc1c(Nc2ccc(O)c(-c3ccccn3)c2)c(=O)c1=O)c1ccccc1` [Compound A3, 3-(4-Hydroxy-3-pyridin-2-ylphenylamino)-4-[(R)-1-phenylethylamino]cyclobut-3-ene-1,2-dione]: the half-maximal inhibitory concentration (IC50) was above 1000 nM.
The same measure, in the same setting: to `COc1cccc([C@@H](C)Nc2c(Nc3ccc(O)c(-n4cccn4)c3)c(=O)c2=O)c1` [Compound A76, 3-(4-Hydroxy-3-pyrazol-1-ylphenylamino)-4-[(R)-1-(3-methoxyphenyl)ethylamino]cyclobut-3-ene-1,2-dione] belongs below 1000 nM.
Consider `C[C@@H](Nc1c(Nc2ccc(O)c(-c3ccccn3)c2)c(=O)c1=O)c1cccc(O)c1` [Compound A5, 3-(4-Hydroxy-3-pyridin-2-ylphenylamino)-4-[(R)-1-(3-hydroxyphenyl)ethylamino]cyclobut-3-ene-1,2-dione], for which the 50% inhibitory concentration (IC50) was below 100 nM.
In the case of `O=c1c(NCc2cccc(O)c2)c(Nc2ccc(O)c(-c3ccccc3)c2)c1=O` [Compound A2, 3-(3-Hydroxybenzylamino)-4-(4-hydroxy-3-phenylphenylamino)cyclobut-3-ene-1,2-dione], the concentration for half-maximal inhibition (IC50) was above 1000 nM.
`O=c1c(NCc2cccc(O)c2)c(Nc2ccc(O)c(-c3ccncc3)c2)c1=O` [Compound A23, 3-(3-Hydroxybenzylamino)-4-(4-hydroxy-3-pyridin-4-ylphenylamino)cyclobut-3-ene-1,2-dione] came in with an IC50 below 1000 nM.
As to `O=c1c(NCc2cccc(O)c2)c(Nc2ccc(O)c(-n3ccnc3)c2)c1=O` [Compound A74, 3-(3-Hydroxybenzylamino)-4-(3-imidazol-1-yl-4-hydroxyphenylamino)cyclobut-3-ene-1,2-dione], the IC50 was above 1000 nM.

Values taken from patent US20080312244A1, “Squaric Acid Derivatives as Protein Kinase Inhibitors” (priority 2005, published 2008).
